Laboratory results taken from patent US9708247B2, “Modulators of the eIF2alpha pathway” (The Regents of the University of California, priority 2013, dated 2017).

Test system: CHOP and GADD34 mRNA
Experiment: qRT-PCR of CHOP and GADD34 mRNA in U2OS cells
Format: cell-based, human
Settings: 2 μg/ml tunicamycin, 200 nM ISRIB
Protocol: FIGS. 4A-4B. ISRIB impairs induction of the transcriptional network controlled by ATF4; (FIG. 4A) ER-stress dependent induction of CHOP and GADD34 mRNA is impaired in cells treated with ISRIB; qPCR analysis of total RNA extracted from U2OS cells treated with 2 μg/ml of tunicamycin in the presence or absence of 200 nM ISRIB for the indicated times; mRNA levels for each sample were normalized to GAPDH (N=4); P values are derived from a one tail Student's t-test for unpaired samples; statistical significance: CHOP, P=0.0006 (*); GADD34, P=0.0008 (*); (FIG. 4B) ISRIB blocks CHOP production during ER stress; an immunofluorescence analysis of U2OS cells treated with 100 nM thapsigargin for 2 h in the presence or absence of 200 nM ISRIB is shown; a secondary Alexa Dye 488 anti-mouse antibody and rhodamine-phalloidin were used to visualize CHOP and actin, respectively.
U2OS cells were plated on 96 well plates and allowed to recover overnight. Cells were treated for the indicated times with the indicated compounds, lysed and cDNA was synthesized using the PowerSYBR Green Cells-to-CT kit (Ambion) following the manufacturer's recommendations. The reactions were ran in an Opticon 2 thermal cycler (BioRad) and analyzed with the Opticon Monitor v3 software (BioRad). […]

O=C(COc1ccc(Cl)cc1)NC1CCC(NC(=O)COc2ccc(Cl)cc2)CC1 (stereo not shown) [ISRIB]
induction of GADD34 and CHOP mRNAs: significantly reduced their induction
